Measured values published in patent US9090571B2, “Meglumine salt of 6-fluoro-3-hydroxy-2-pyrazine carboxamide” (TOYAMA CHEMICAL CO., LTD., priority 2010, dated 2015).

Experiment: Solubility in water (statement)
Format: physicochemical

Structure (SMILES)	solubility in water
NC(=O)c1nc(F)c[nH]c1=O [Compound A, 6-fluoro-3-hydroxy-2-pyrazinecarboxamide]	low solubility in water
CNC[C@H](O)[C@@H](O)[C@H](O)[C@H](O)CO.NC(=O)c1nc(F)cnc1O [Salt A, meglumine salt of 6-fluoro-3-hydroxy-2-pyrazinecarboxamide]	high
